Source: PubChem BioAssay (NCI)
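Results reflect a 48-hour exposure of cells in 96-well plates to compound at five concentrations. At the GI50, growth is halved. TGI: total growth inhibition.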

Tests used:
Assay in all cases: NCI-60 cell line screen, 48 h
[1] = test system: SF-268 CNS
[2] = test system: KM12 colon
[3] = test system: 786-0 renal
[4] = test system: HOP-92 NSCLC
[5] = test system: CCRF-CEM leukemia
[6] = test system: SF-295 CNS
[7] = test system: MCF7 breast
[8] = test system: LOX IMVI melanoma
[9] = test system: MDA-MB-231 breast
[10] = test system: TK-10 renal
[11] = test system: MOLT-4 leukemia
[12] = test system: HOP-62 NSCLC
[13] = test system: SR leukemia
[14] = test system: NCI-H460 lung
[15] = test system: SW-620 colon
[16] = test system: A549 NSCLC
[17] = test system: MDA-MB-468 breast
[18] = test system: M14 melanoma
[19] = test system: SNB-75 CNS
[20] = test system: UACC-62 melanoma
[21] = test system: SF-539 CNS
[22] = test system: OVCAR-8 ovarian
[23] = test system: NCI-H522 lung
[24] = test system: SNB-19 CNS
[25] = test system: COLO 205 colon
[26] = test system: NCI-H226 lung
[27] = test system: PC-3 prostate
[28] = test system: SN12C renal
[29] = test system: RPMI-8226 leukemia
[30] = test system: T-47D breast
[31] = test system: OVCAR-3 ovarian
[32] = test system: OVCAR-5 ovarian
[33] = test system: SK-MEL-28 melanoma
[34] = test system: MALME-3M melanoma
[35] = test system: U251 CNS
[36] = test system: DU-145 prostate
[37] = test system: HCT-15 colon
[38] = test system: SK-OV-3 ovarian
[39] = test system: IGROV1 ovarian
[40] = test system: ACHN renal
[41] = test system: MDA-MB-435
[42] = test system: HCC-2998 colon
[43] = test system: HS 578T breast
[44] = test system: UO-31 renal
[45] = test system: UACC-257 melanoma
[46] = test system: EKVX NSCLC
[47] = test system: A498 renal
[48] = test system: CAKI-1 renal
[49] = test system: HL-60(TB) leukemia
[50] = test system: HCT-116 colon
[51] = test system: OVCAR-4 ovarian
[52] = test system: BT-549 breast
[53] = test system: RXF 393 renal
[54] = test system: HT29 colon
[55] = test system: SK-MEL-5 melanoma
[56] = test system: NCI-H23 lung
[57] = test system: K-562 leukemia

Structure (SMILES): CCC(C)(C)c1ccc(OCCCCN2CCN(c3ccncc3)CC2)cc1
- GI50 [1]: 15.3 µM
- TGI [1]: 31 µM
- GI50 [2]: 10.8 µM
- TGI [2]: 24.3 µM
- GI50 [3]: 7.54 µM
- TGI [3]: 20.1 µM
- GI50 [4]: 1.97 µM
- TGI [4]: 15.6 µM
- GI50 [5]: 6.07 µM
- TGI [5]: 37.7 µM
- GI50 [6]: 4.02 µM
- TGI [6]: 15.3 µM
- GI50 [7]: 3.08 µM
- TGI [7]: 10.7 µM
- GI50 [8]: 1.9 µM
- TGI [8]: 3.64 µM
- GI50 [9]: 11 µM
- TGI [9]: 23.4 µM
- GI50 [10]: 15.9 µM
- TGI [10]: 29.8 µM
- GI50 [11]: 4.63 µM
- TGI [11]: 24.4 µM
- GI50 [12]: 12.4 µM
- TGI [12]: 27 µM
- GI50 [13]: 3.06 µM
- TGI [13]: 10.1 µM
- GI50 [14]: 10.1 µM
- TGI [14]: 24 µM
- GI50 [15]: 4.82 µM
- TGI [15]: 18.2 µM
- GI50 [16]: 12.5 µM
- TGI [16]: 27.3 µM
- GI50 [17]: 2.27 µM
- TGI [17]: 5.8 µM
- GI50 [18]: 10.6 µM
- TGI [18]: 22.8 µM
- GI50 [19]: 13.4 µM
- TGI [19]: 26.6 µM
- GI50 [20]: 13.5 µM
- TGI [20]: 26.4 µM
- GI50 [21]: 5.15 µM
- TGI [21]: 18.2 µM
- GI50 [22]: 14.1 µM
- TGI [22]: 32 µM
- GI50 [23]: 15.6 µM
- TGI [23]: 31 µM
- GI50 [24]: 11.3 µM
- TGI [24]: 23.6 µM
- GI50 [25]: 2.14 µM
- TGI [25]: 4.03 µM
- GI50 [26]: 11.5 µM
- TGI [26]: 25.3 µM
- GI50 [27]: 5.29 µM
- TGI [27]: 25.4 µM
- GI50 [28]: 13 µM
- TGI [28]: 26 µM
- GI50 [29]: 4.59 µM
- TGI [29]: 24.2 µM
- GI50 [30]: 5.27 µM
- TGI [30]: 22.8 µM
- GI50 [31]: 11.2 µM
- TGI [31]: 24 µM
- GI50 [32]: 12.7 µM
- TGI [32]: 25.2 µM
- GI50 [33]: 7.48 µM
- TGI [33]: 20.3 µM
- GI50 [34]: 7.82 µM
- TGI [34]: 20.5 µM
- GI50 [35]: 5.92 µM
- TGI [35]: 19.4 µM
- GI50 [36]: 13.4 µM
- TGI [36]: 26.7 µM
- GI50 [37]: 2.08 µM
- TGI [37]: 4.82 µM
- GI50 [38]: 14.7 µM
- TGI [38]: 29 µM
- GI50 [39]: 13.7 µM
- TGI [39]: 27.3 µM
- GI50 [40]: 15 µM
- TGI [40]: 28.3 µM
- GI50 [41]: 8.9 µM
- TGI [41]: 21.1 µM
- GI50 [42]: 2.29 µM
- TGI [42]: 5.48 µM
- GI50 [43]: 13.8 µM
- TGI [43]: 38.8 µM
- GI50 [44]: 12.2 µM
- TGI [44]: 24.7 µM
- GI50 [45]: 13.4 µM
- TGI [45]: 27.5 µM
- GI50 [46]: 7.78 µM
- TGI [46]: 21.6 µM
- GI50 [47]: 17.3 µM
- TGI [47]: 31.7 µM
- GI50 [48]: 13.9 µM
- TGI [48]: 27.5 µM
- GI50 [49]: 1.93 µM
- TGI [49]: 4.42 µM
- GI50 [50]: 4.65 µM
- TGI [50]: 16.3 µM
- GI50 [51]: 11.6 µM
- TGI [51]: 25 µM
- GI50 [52]: 5.79 µM
- TGI [52]: 19.2 µM
- GI50 [53]: 2.77 µM
- TGI [53]: 14.6 µM
- GI50 [54]: 3.45 µM
- TGI [54]: 14 µM
- GI50 [55]: 6.63 µM
- TGI [55]: 19.3 µM
- GI50 [56]: 5.46 µM
- TGI [56]: 18.4 µM
- GI50 [57]: 1.98 µM
- TGI [57]: 11.2 µM
